Laboratory results reported in patent US6750348B1, “Chemokine receptor binding heterocyclic compounds” (AnorMED, Inc., priority 1999, dated 2004).

What was measured:
Type in all cases: cell-based
HIV-1 NL4.3 or IIIB = experiment: Inhibition of HIV-1 (NL4.3 or IIIB) replication in MT-4 cells (MTT); details: Human immunodeficiency virus 1, IIIB, MT4, read-out: EC50, inhibition of HIV-1 NL4.3 or IIIB replication
In short: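 CXCR4-tropic virus infected MT-4 cells at MOI 0.01 (100× CCID50) across a range of compound concentrations, with cytotoxicity run in parallel. Viable cells counted by MTT after 5 days. EC50 is the concentration protecting 50% of infected cells from viral cytopathicity.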

[1] = system: SDF-1α induced Ca flux in SUP-T1 cells; experiment: Inhibition of SDF-1α induced Ca flux in SUP-T1 cells (FLIPR); details: Homo sapiens, at 20 μg/mL, read-out: inhibited SDF-1α induced Ca flux
[2] = system: RANTES induced Ca flux in U87.CCR5 cells; experiment: Inhibition of RANTES induced Ca flux in U87.CCR5 cells (FLIPR); details: U-87-CCR5, at 20 μg/mL, read-out: inhibited RANTES induced Ca flux
Description: Loading dye: Fluo-3, AM (Molecular Probes F-1241) is dissolved in anhydrous DMSO and stored frozen in aliquots. To increase the solubility of the dye in the loading medium, 10% (w/v) pluronic acid (Molecular Probes F-127) is added to the Fluo-3 stock solution immediately before use.
HBSS+20 mM Hepes buffer+0.2% BSA, pH 7.4. HBSS 10× [(w/o phenol red and sodium bicarbonate (Gibco 14 065-049)]; Hepes buffer 1M (Gibco 15 630-056), BSA (Sigma A3675). The flux buffer is vacuum-filtered and stored refrigerated for a maximum of 5 days. Before use in the experiment, the buffer is warmed at 37° C. in a waterbath.
The test compounds were diluted in flux buffer and added to 4 wells of a black microplate (4 parallel measurements per compound).
The chemokines are diluted in flux buffer to concentrations that are 4-fold higher than the desired concentrations required for stimulation of the cells (i.e. 2.5 nM for SDF-1α and 0.6 nM for RANTES). The chemokines were added to untreated 96-well Sero well compound plates (International Medical, Sterilin code 611F96). In the negative control well's (baseline monitoring), flux buffer is added instead of chemokine. As a positive control to check for dye loading efficiency, 20 μM digitonin (final concentration) was also included. The agonist plate was incubated in the FLIPR (37° C.) for 15-30 min.
The FLIPR settings (camera exposure time and laser power) are adjusted to obtain initial fluorescence values between 8,000 and 10,000 units. After monitoring a 20 second-baseline, the agonist (chemokine) (50 μL) is added by automatic pipettor with black pipette tips. Fluorescence is measured simultaneously in all wells of the microplate every 2 seconds (first 2 min) and thereafter every 6 seconds (additional 2 min). The average ca-flux measured in each set of 4 identical wells (one test compound) was calculated by the FLIPR software.
U87.CCR5 cells were seeded into the black microplates (Costar 3603) on the day before the experiment. The culture medium was removed from the cells and 100 μL of loading medium (DMEM+10% FBS+4 μM Fluo-3, AM) was added to each well and the plate was incubate at 37° C. for 45 min. The loading medium was then removed an the cells were washed twice with flux buffer using the CELL WASH microplate washer (Labsystems) followed by incubation in flux buffer for 10 min. at room temperature (the washing procedure was repeated twice). Finally, the wash buffer was removed from the microplate wells and 150 μL of the test compound, diluted in flux buffer to the desired concentration. The microplate was then incubated in the FLIPR drawer for 10 min. prior to testing. Measurements were performed as described above.
The compounds of the current invention were tested for inhibition of RANTES induced Ca flux in U87.CCR5 cells.

HIV-1 BaL (CCR5 using) = experiment: Inhibition of HIV-1 (BaL) replication in PHA-stimulated PBMC's (MTT); details: Human immunodeficiency virus 1, BAL, MTT assay
Description: Compounds were tested for their ability to inhibit HIV-1 replication in MT-4 cells or PBMC's (peripheral blood mononucleocytes) using published procedures (for example, see: Labrosse et al. J. Virol. 1998, 6381-6388; Simmons et al. J. Virol. 1998, 8453-8457; Donzella et al. Nature Medicine 1998, 72-77; Schols et al. J. Exp. Med. 1997, 1383-1388; De Clercq et al. Antiviral Res. 1997, 147-156; and Bridger et al. U.S. patent application Ser. No. 09/111,895). In addition to the above references, experimental methods for performing anti-viral assays can also be found in: Bridger et al. J. Med. Chem. 1995, 38, 366-378; Bridger et al. J. Med. Chem. 1996, 39, 109-119; Bridger et al. U.S. Pat. No. 5,698,546; Bridger et al. U.S. Pat. No. 5,583,131; Bridger et al. U.S. Pat. No. 5,817,807; De Clercq et al. Antimicrob. Agents and Chemother. 1994, 38, 668-674.
The HIV-1 strain BaL is M-tropic (macrophage tropic) strain that exclusively uses CCR5 as a co-receptor for entry into cells. PBMC's (from healthy donors) express all chemokine receptors including CXCR4 and CCR5.

EC50 (HIV-1 NL4.3 or IIIB)	EC50 (HIV-1 BaL (CCR5 using))	Structure (SMILES)	inhibition at 20 µg/mL [1]	inhibition at 20 µg/mL [2]
< 20 µg/mL	< 20 µg/mL	c1ccc(CNCCN(Cc2ccc(CNCc3ccccn3)cc2)C2CCCc3cccnc32)cc1 (stereo not drawn) [Example 30, N-(2-pyridinylmethyl)-N′-[2-[(phenylmethyl)amino]ethyl]-N′-(5,6,7,8-tetrahydro-8-quinolinyl)-1,4-benzenedimethanamine]	> 20%	> 20%
< 20 µg/mL	< 20 µg/mL	c1ccc(CCN(Cc2ccc(CNCc3ccccn3)cc2)C2CCCc3cccnc32)nc1 (stereo not drawn) [Example 66, N-(2-pyridinylmethyl)-N′-[2-(2-pyridinyl)ethyl]-N′-(5,6,7,8-tetrahydro-8-quinolinyl)-1,4-benzenedimethanamine]	> 20%	
< 20 µg/mL	< 20 µg/mL	c1ccc(-c2ccc3c(n2)C(NCc2ccc(CNCc4ccccn4)cc2)CCC3)cc1 (stereo not drawn) [Example 11, N-(2-pyridinylmethyl)-N′-(2-phenyl-5,6,7,8-tetrahydro-8-quinolinyl)-1,4-benzenedimethanamine]		> 20%
< 20 µg/mL	< 20 µg/mL	c1ccc(CNCc2ccc(CN(Cc3ccco3)C3CCCc4cccnc43)cc2)nc1 (stereo not drawn) [Example 29, N-(2-pyridinylmethyl)-N′-[2-furanylmethyl]-N′-(5,6,7,8-tetrahydro-8-quinolinyl)-1,4-benzenedimethanamine]	> 20%	
< 20 µg/mL	< 20 µg/mL	c1ccc(CNCc2ccc(CN(Cc3ccccn3)CC3CCCc4cccnc43)cc2)nc1 (stereo not drawn) [Example 88, N,N′-bis(2-pyridinylmethyl)-N′-[(5,6,7,8-tetrahydro-8-quinolinyl)methyl]-1,4-benzenedimethanamine]	> 20%	
< 20 µg/mL	< 20 µg/mL	c1ccc(CNCc2ccc(CN(Cc3c[nH]cn3)C3CCCc4cccnc43)cc2)nc1 (stereo not drawn) [Example 17, N-(2-pyridinylmethyl)-N′-(1H-imidazol-4-ylmethyl)-N′-(5,6,7,8-tetrahydro-8-quinolinyl)-1,4-benzenedimethanamine]	> 20%	
< 20 µg/mL	< 20 µg/mL	c1ccc(-c2ccc3c(n2)C(N(Cc2ccc(CNCc4ccccn4)cc2)Cc2ccccn2)CCC3)cc1 (stereo not drawn) [Example 12, N,N′-bis(2-pyridinylmethyl)-N′-(2-phenyl-5,6,7,8-tetrahydro-8-quinolinyl)-1,4-benzenedimethanamine]	> 20%	
< 20 µg/mL	< 20 µg/mL	Fc1cccc2c1CC(NCc1ccc(CNCc3ccccn3)cc1)CC2 (stereo not drawn) [Example 43, N-(2-pyridinylmethyl)-N′-(8-Fluoro-1,2,3,4-tetrahydro2-naphthalenyl)-1,4-benzenedimethanamine]	> 20%	
< 20 µg/mL	< 20 µg/mL	N[C@@H]1CCC[C@H]1N(Cc1ccc(CNCc2ccccn2)cc1)C1CCCc2cccnc21 (relative stereo) [Example 71, N-(2-pyridinylmethyl)-N′-(trans-2-aminocyclopentyl)-N′-(5,6,7,8-tetrahydro-8-quinolinyl)-1,4-benzenedimethanamine]		> 20%
	< 20 µg/mL	c1ccc(CNCc2ccc(CNc3cccc4ccccc34)cc2)nc1 [Example 5, N-(2-pyridinylmethyl)-N′-(1-naphthalenyl)-1,4-benzenedimethanamine]		> 20%
